Counter-ions that a name gives are not always drawn. Like-named read-outs stand apart in the source and are kept apart here.
How the values were obtained:
[1] = target: T1, amorpha-4,11-diene synthase (ADS) (Artemisia annua, UniProt Q9AR04); test: Inhibition of amorpha-4,11-diene synthase, radiolabelled FDP assay; format: biochemical
T1 construct: made in house
Protocol: (§1) Recombinant AS and ADS were prepared and purified according to previously published procedures[17],[18] and both (R)-11 and (S)-11 were tested as inhibitors using a standard radiolabelled assay involving conversion of tritium labelled FDP by each enzyme and scintillation counting of the pentane extractable products.[5b] Terpene synthases are known to efficiently bind cation-PPi pairs and inhibition was assessed both in the presence and absence of 250 μM diphosphate (Table 1). Synergistic inhibition of aza-analogues 11 with diphosphate has been observed previously for a variety of other terpene synthases.[5d],[13c],[14]
(§2) Kinetic data were fitted by non-linear regression to the Michaelis–Menten equation (v0 = kcat[E][S]/(KM + [S]). The mode of inhibition was determined by inspection of double reciprocal plots and observed to be competitive in all cases where inhibition was significant at low concentrations of 11. KI was determined from a plot of inhibitor concentration versus K′M/(kcat[E]) where K′M = KM(1 + [I]/KI). […]
(§3) 2. Steady-state kinetics of DCS-His6, ADS and AS.
(§4) Kinetic assays were carried out according to the standard, linear range, micro-assay procedure previously described.5 The reaction mixtures containing buffer, FDP and protein were prepared on ice in a total volume of 250 µL and were overlaid with ca. 0.8 mL of HPLC-grade hexane prior to incubation. The assay mixtures were initiated by addition of enzyme and incubated at room temp (30 °C) for 10 min. The reactions were immediately ice-cooled and quenched by addition of 200 µL of 100 mM EDTA (pH 8.5) and brief vortexing. The hexane overlay and two additional 1 mL hexane extracts were passed through a short pipette column containing silica gel. The column was washed with additional hexane (1 mL) and the combined filtrates were analysed by liquid scintillation counting using 15 mL of scintillation cocktail Ecoscint O. Steady-State kinetic parameters for DCS-His6 and mutants were obtained by direct fitting of the data to the Michaelis-Menten equation by nonlinear least squares regression in conjunction with the graphical procedures developed by Lineweaver-Burk using the commercial SigmaPlot package (Systat Software).

[2] = target: T2, δ-cadinene synthase (DCS-His6) (Gossypium arboreum, UniProt Q39761); test: Inhibition of δ-cadinene synthase, radiolabelled FDP assay; format: biochemical
T2 construct: hexahistidine (His6) (C); made in house; host or cells: E. coli BL-21 (DE3)
T2 sequence (Q39761 1-554): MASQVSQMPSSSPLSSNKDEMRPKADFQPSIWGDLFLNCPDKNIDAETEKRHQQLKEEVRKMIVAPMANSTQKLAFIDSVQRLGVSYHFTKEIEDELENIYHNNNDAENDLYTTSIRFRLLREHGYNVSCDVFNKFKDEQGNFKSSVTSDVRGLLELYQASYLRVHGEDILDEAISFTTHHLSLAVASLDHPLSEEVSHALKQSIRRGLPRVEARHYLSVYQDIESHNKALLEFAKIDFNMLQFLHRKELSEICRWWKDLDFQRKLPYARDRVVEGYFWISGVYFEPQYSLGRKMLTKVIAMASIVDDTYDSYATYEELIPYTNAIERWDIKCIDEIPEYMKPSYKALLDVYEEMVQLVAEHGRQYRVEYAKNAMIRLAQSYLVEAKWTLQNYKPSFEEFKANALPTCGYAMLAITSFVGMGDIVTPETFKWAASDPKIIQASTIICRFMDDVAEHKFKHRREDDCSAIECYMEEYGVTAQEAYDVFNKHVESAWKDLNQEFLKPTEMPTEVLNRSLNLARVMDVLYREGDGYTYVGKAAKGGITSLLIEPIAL
Protocol: as §1
Kinetic data were fitted by non-linear regression to the Michaelis–Menten equation (v0 = kcat[E][S]/(KM + [S]). The mode of inhibition was determined by inspection of double reciprocal plots and observed to be competitive in all cases where inhibition was significant at low concentrations of 11. KI was determined from a plot of inhibitor concentration versus K′M/(kcat[E]) where K′M = KM(1 + [I]/KI).
Recombinant DCS was generated with a C-terminal hexahistidine tag (DCS-His6) as previously described.[19] Inhibition assays were carried out using the same protocol used for AS and ADS. […] DCS clearly requires a cation–anion pair in its active site for effective inhibition by aza-analogues. Our results provide strong evidence for 1,6-cyclase activity for DCS. […]
as §3, §4

[3] = target: T3, aristolochene synthase from Penicillium roqueforti (AS) (Penicillium roqueforti, UniProt Q03471); test: Inhibition of aristolochene synthase, radiolabelled FDP assay; format: biochemical
T3 construct: made in house
Protocol: as §1, §2, §3, §4

DCS = target: DCS; set-up: method as in PMID 22397618; details: cited from earlier work
[4] = +250 μM PPi, read-out: K i (μM) (+250 μM PPi)
[5] = K i (μM) (+250 μM PPi), +250 μM PPi

T3 sequence (Q03471 whole entry): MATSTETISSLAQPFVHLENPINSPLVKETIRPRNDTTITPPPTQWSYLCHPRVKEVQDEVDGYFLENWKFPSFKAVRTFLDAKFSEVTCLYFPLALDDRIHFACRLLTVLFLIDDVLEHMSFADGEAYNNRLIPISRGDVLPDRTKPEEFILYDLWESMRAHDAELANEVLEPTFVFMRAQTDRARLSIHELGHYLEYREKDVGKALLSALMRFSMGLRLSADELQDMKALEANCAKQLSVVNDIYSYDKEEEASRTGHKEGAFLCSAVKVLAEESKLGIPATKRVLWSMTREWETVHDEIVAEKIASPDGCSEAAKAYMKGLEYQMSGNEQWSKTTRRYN
T1 sequence (Q9AR04 whole entry): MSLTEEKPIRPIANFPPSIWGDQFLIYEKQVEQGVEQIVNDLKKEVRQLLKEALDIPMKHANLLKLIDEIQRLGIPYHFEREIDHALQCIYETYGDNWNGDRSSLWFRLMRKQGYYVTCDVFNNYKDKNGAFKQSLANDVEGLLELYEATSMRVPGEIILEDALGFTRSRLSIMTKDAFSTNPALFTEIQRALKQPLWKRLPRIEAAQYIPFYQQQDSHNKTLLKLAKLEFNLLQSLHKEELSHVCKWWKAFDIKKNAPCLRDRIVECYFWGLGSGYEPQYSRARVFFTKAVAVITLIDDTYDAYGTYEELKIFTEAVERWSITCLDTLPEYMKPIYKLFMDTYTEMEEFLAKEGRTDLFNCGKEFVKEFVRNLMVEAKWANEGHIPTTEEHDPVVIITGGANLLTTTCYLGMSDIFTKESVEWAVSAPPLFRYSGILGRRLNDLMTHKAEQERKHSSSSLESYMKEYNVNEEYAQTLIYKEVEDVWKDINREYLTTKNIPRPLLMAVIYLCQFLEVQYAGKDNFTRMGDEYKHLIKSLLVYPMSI

| Structure (SMILES) | Ki [1, 4] [µM] | Ki ([1]; absence of PPi, read-out: K i) [µM] | Ki [2, 4] [µM] | Ki ([2]; absence of PPi, read-out: K i) [µM] | Ki [3, 5] [µM] | Ki ([3]; K i (μM), absence of PPi) [µM] | Inhibition in words ([2]; in the absence of PPi) | Ki (DCS; DCS, 6F-FDP as substrate analogue) [nM] | Products when incubated with DCS (DCS; pentane-extractable products) | melting point [°C] |
| --- | --- | --- | --- | --- | --- | --- | --- | --- | --- | --- |
| CC(C)=CCCN(C)[C@@H]1CC=C(C)CC1 [(S)-11] | 1.5 ± 0.5 | 25 ± 5 | 3.44 ± 1.43 | 273 ± 77 | 255 ± 23 | 295 ± 23 | – | – | – | – |
| CC(C)=CCCN(C)[C@H]1CC=C(C)CC1 [(R)-11] | 3.7 ± 1.9 | 50 ± 17 | 2.5 ± 0.5 | 1700 ± 300 | 489 ± 62 | 472 ± 48 | weak inhibitor | – | – | – |
| CC(C)=CCCC(C)=C(F)CCC(C)=CCOP(=O)(O)OP(=O)(O)O [6F-FDP, 6-fluorofarnesyl diphosphate] | – | – | – | – | – | – | – | 2400 | no detectable pentane-extractable products | – |
| CC(C)=CCCN(C)[C@@H]1CC=C(C)CC1 (as salt: hydrochloride) [(S)-11] | – | – | – | – | – | – | – | – | – | 131 to 133 |
